Assays:
[1] = tested on: Wnt transcriptional activity; experiment: cell-based Wnt-luciferase reporter assay (SuperTOPFlash); settings: for inhibition of Wnt transcriptional activity (in words): Wnt-luciferase reporter; for Relative potency for Wnt inhibition: relative to IWR-1, transfected HEK293A cells treated 12 hours, normalized to Renilla
Excerpt: “Hit” 1 (FIG. 1) was identified as a Wnt inhibitor in a high-throughput screen of a library of 74,000 compounds using a cell-based Wnt-luciferase reporter assay as a readout of Wnt transcriptional activity. […] Wnt transcriptional activity was monitored in HEK-293T cells using a luciferase-based Wnt reporter (SuperTOPFlash) stimulated by Wnt3a conditioned media.
Medicinal chemical refinement of “hit” 1 was undertaken to improve its potency, maintain non-toxicity, increase water solubility and improve bioavailability. The SAR refinement of functional activity of “hit” 1 on the inhibition of the Wnt pathway was determined using a cell-based Wnt-luciferase reporter assay (described above). with Renilla Luciferase was used as a normalization for transfection efficiency. 6-8 hours after transfection, transfected HEK293A cells were treated with 1 and each analog for 12 hours. Both firefly and renilla luciferase activities were measured using a plate reader. A library of compounds was tested to obtain an SAR for 1. Compound 1 and its analogs are synthesized by a two step synthesis, Scheme 1.
Signaling was tested using a standard luciferase response system for canonical Wnt/β-catenin/TCF signaling. Briefly, we used a cell line that had been transfected with a luciferase reporter gene under the control of the response element of a transcription factor that is activated by association with β-catenin and is the target of canonical Wnt signaling.

[2] = chemical stability by HPLC; assay type: physicochemical; settings: determined by HPLC
Excerpt: As observed from the data presented in Table 1, both free bases and salts gave significant Wnt inhibition potency. On the basis of the lipophilic character of many of the analogs, it is likely interaction site on the molecular target has a lipophilic character although polar interactions are apparent. To increase solubility, were possible, hydrochloride salts of the sulfonamides were synthesized. To afford appropriate bioavailability, sulfonamides were synthesized with chemical and metabolic stability in mind.

pharmacokinetics in rats = settings: rat, in vivo
[3] = tested on: canonical Wnt target genes, Cyclin D1 (CCND1), Axin2 (AXIN2), and c-Myc (c-MYC); experiment: mRNA levels of canonical Wnt target genes in HEK293T and SW480 cells; assay type: cell-based; settings: HEK293T and SW480 colorectal cells
[4] = tested on: SW480 colorectal cancer model cell line; experiment: SW480 cell proliferation and cell cycle (InCell 1000); assay type: cell-based, human
Excerpt: Previous studies have shown that the Wnt signaling pathway drives cellular proliferation of a number of cancers through up-regulation of genes for several proteins crucial for cell division including Cyclin D1, c-Myc, etc. and treatment of cancer cells with 1 or analogs decreases cellular proliferation. Accordingly, we examined the effect of 1 and analogs on cell proliferation of human cancer cell lines. […] The results were confirmed by studying the effects of 1 on SW480 human colon cell cycle determined by cell images captured by InCell 1000.

**Q.** For `O=C1CCCN1c1ccc(S(=O)(=O)N2CCCC3CCCCC32)cc1` (stereo not shown) [Compound 3, 1-(4-(octahydroquinolin-1(2H)-ylsulfonyl)phenyl)pyrrolidin-2-one], which “inhibition of Wnt transcriptional activity (in words)” value [1] is on record?
**A.** potent inhibition of Wnt

**Q.** Which “Relative potency for Wnt inhibition” value [1] does the source give for `O=C1CCCN1c1ccc(S(=O)(=O)N2CCCc3cc(Cl)ccc32)cc1` [Compound 5, 1-(4-(6-chloro-3,4-dihydroquinolin-1(2H)-ylsulfonyl)phenyl)pyrrolidin-2-one] here?
**A.** ++++ (between 60 to 80% potency compared to IWR-1)

**Q.** For `O=C1CCCN1c1ccc(S(=O)(=O)N2CCCc3cc(F)ccc32)cc1` [Compound 6, 1-(4-(6-fluoro-3,4-dihydroquinolin-1(2H)-ylsulfonyl)phenyl)pyrrolidin-2-one], which “Relative potency for Wnt inhibition” value [1] is on record?
**A.** +++ (between 40 to 60% potency compared to IWR-1)

**Q.** What about the chemical half life [2] of the same compound?
**A.** No change

**Q.** With `COc1ccc2c(c1)CCCN2S(=O)(=O)c1ccc(N2CCCC2=O)cc1` [Compound 7, 1-(4-(6-methoxy-3,4-dihydroquinolin-1(2H)-ylsulfonyl)phenyl)pyrrolidin-2-one] as the compound, how does the “Relative potency for Wnt inhibition” value [1] read?
**A.** ++++ (between 60 to 80% potency compared to IWR-1)

**Q.** And the half-life [2]?
**A.** 37 h

**Q.** Which “Relative potency for Wnt inhibition” value [1] does the source give for `O=C1CCCN1c1ccc(S(=O)(=O)N2CCCc3cc(C(F)(F)F)ccc32)cc1` [Compound 8, 1-(4-(6-(trifluoromethyl)-3,4-dihydroquinolin-1(2H)-ylsulfonyl)phenyl)-pyrrolidin-2-one] here?
**A.** +++ (between 40 to 60% potency compared to IWR-1)

**Q.** For `CC(C)(C)c1ccc2c(c1)CCCN2S(=O)(=O)c1ccc(N2CCCC2=O)cc1` [Compound 9, 1-(4-(6-tert-butyl-3,4-dihydroquinolin-1(2H)-ylsulfonyl)phenyl)pyrrolidin-2-one], which “Relative potency for Wnt inhibition” value [1] is on record?
**A.** + (<20% potency compared to compound IWR-1)

**Q.** For `Cc1ccc2c(c1)N(S(=O)(=O)c1ccc(N3CCCC3=O)cc1)CCC2` [Compound 11, 1-(4-(7-methyl-3,4-dihydroquinolin-1(2H)-ylsulfonyl)phenyl)pyrrolidin-2-one], which “Relative potency for Wnt inhibition” value [1] is on record?
**A.** ++++ (between 60 to 80% potency compared to IWR-1)

**Q.** With `O=C1CCCN1c1ccc(S(=O)(=O)N2CCc3ccccc3C2)cc1` [Compound 12, 1-(4-(3,4-dihydroisoquinolin-2(1H)-ylsulfonyl)phenyl)pyrrolidin-2-one] as the compound, how does the “Relative potency for Wnt inhibition” value [1] read?
**A.** ++++ (between 60 to 80% potency compared to IWR-1)

**Q.** For `Cc1ccc2c(c1)CCN(S(=O)(=O)c1ccc(N3CCCC3=O)cc1)C2` [Compound 13, 1-(4-(6-methyl-3,4-dihydroisoquinolin-2(1H)-ylsulfonyl)phenyl)pyrrolidin-2-one], which “Relative potency for Wnt inhibition” value [1] is on record?
**A.** + (<20% potency compared to compound IWR-1)

**Q.** Which “Relative potency for Wnt inhibition” value [1] does the source give for `Cc1ccc2c(c1)CN(S(=O)(=O)c1ccc(N3CCCC3=O)cc1)CC2` [Compound 14, 1-(4-(7-methyl-3,4-dihydroisoquinolin-2(1H)-ylsulfonyl)phenyl)pyrrolidin-2-one] here?
**A.** +++ (between 40 to 60% potency compared to IWR-1)

**Q.** For `O=C1CCCN1c1ccc(S(=O)(=O)Nc2ccccc2)cc1` [Compound 17, 4-(2-oxopyrrolidin-1-yl)-N-phenylbenzenesulfonamide], which “Relative potency for Wnt inhibition” value [1] is on record?
**A.** + (<20% potency compared to compound IWR-1)

**Q.** With `COc1ccccc1NS(=O)(=O)c1ccc(N2CCCC2=O)cc1` [Compound 18, N-(2-methoxyphenyl)-4-(2-oxopyrrolidin-1-yl)benzenesulfonamide] as the compound, how does the “Relative potency for Wnt inhibition” value [1] read?
**A.** + (<20% potency compared to compound IWR-1)

**Q.** Which “Relative potency for Wnt inhibition” value [1] does the source give for `O=C1CCCN1c1ccc(S(=O)(=O)Nc2ccccc2OC(F)(F)F)cc1` [Compound 19, 4-(2-oxopyrrolidin-1-yl)-N-(2-(trifluoromethoxy)phenyl)benzenesulfonamide] here?
**A.** + (<20% potency compared to compound IWR-1)

**Q.** With `O=C1CCCN1c1ccc(S(=O)(=O)Nc2cccc3ccccc23)cc1` [Compound 20, N-(naphthalen-1-yl)-4-(2-oxopyrrolidin-1-yl)benzenesulfonamide] as the compound, how does the “Relative potency for Wnt inhibition” value [1] read?
**A.** + (<20% potency compared to compound IWR-1)

**Q.** Which “Relative potency for Wnt inhibition” value [1] does the source give for `O=C1CCCN1c1ccc(S(=O)(=O)N2CCCCC2)cc1` [Compound 21, 1-(4-(piperidin-1-ylsulfonyl)phenyl)pyrrolidin-2-one] here?
**A.** + (<20% potency compared to compound IWR-1)

**Q.** For `CCC1CCCCN1S(=O)(=O)c1ccc(N2CCCC2=O)cc1` (stereo not shown) [Compound 22, 1-(4-(2-ethylpiperidin-1-ylsulfonyl)phenyl)pyrrolidin-2-one], which “Relative potency for Wnt inhibition” value [1] is on record?
**A.** + (<20% potency compared to compound IWR-1)

**Q.** For `CCCN(c1ccccc1)S(=O)(=O)c1ccc(N2CCCC2=O)cc1` [Compound 23, 4-(2-oxopyrrolidin-1-yl)-N-phenyl-N-propylbenzenesulfonamide], which “Relative potency for Wnt inhibition” value [1] is on record?
**A.** + (<20% potency compared to compound IWR-1)

**Q.** Which “Relative potency for Wnt inhibition” value [1] does the source give for `CCCCN(c1ccccc1)S(=O)(=O)c1ccc(N2CCCC2=O)cc1` [Compound 24, N-butyl-4-(2-oxopyrrolidin-1-yl)-N-phenylbenzenesulfonamide] here?
**A.** + (<20% potency compared to compound IWR-1)

**Q.** Which “inhibition of Wnt transcriptional activity (in words)” value [1] does the source give for `O=C1CCCCN1c1ccc(S(=O)(=O)N2CCCc3ccccc32)cc1` [Compound 25, 1-(4-(3,4-dihydroquinolin-1(2H)-ylsulfonyl)phenyl)piperidin-2-one] here?
**A.** did not inhibit Wnt transcriptional activity

**Q.** And the “Relative potency for Wnt inhibition” value [1]?
**A.** + (<20% potency compared to compound IWR-1)

**Q.** For `CC(=O)N(C)c1ccc(S(=O)(=O)N2CCCc3ccccc32)cc1` [Compound 26, N-(4-(3,4-dihydroquinolin-1(2H)-ylsulfonyl)phenyl)-N-methylacetamide], which “Relative potency for Wnt inhibition” value [1] is on record?
**A.** + (<20% potency compared to compound IWR-1)

**Q.** Which “Relative potency for Wnt inhibition” value [1] does the source give for `COC1CCN(c2ccc(S(=O)(=O)N3CCN(C)c4ccccc43)cc2)C1=O` (stereo not shown) [Compound 27, 3-methoxy-1-(4-(4-methyl-3,4-dihydroquinoxalin-1(2H)-ylsulfonyl)phenyl)-pyrrolidin-2-one] here?
**A.** + (<20% potency compared to compound IWR-1)

**Q.** Which “Relative potency for Wnt inhibition” value [1] does the source give for `CN1CCN(S(=O)(=O)c2ccc(N3CCC(O)C3=O)cc2)c2ccccc21` (stereo not shown) [Compound 28, 3-hydroxy-1-(4-(4-methyl-3,4-dihydroquinoxalin-1(2H)-ylsulfonyl)phenyl)-pyrrolidin-2-one] here?
**A.** +++ (between 40 to 60% potency compared to IWR-1)

**Q.** Which “Relative potency for Wnt inhibition” value [1] does the source give for `CN1CCN(S(=O)(=O)c2ccc(N3CCCC3)cc2)c2ccccc21` [Compound 31, 1-methyl-4-(4-(pyrrolidin-1-yl)phenylsulfonyl)-1,2,3,4-tetrahydroquinoxaline] here?
**A.** ++++ (between 60 to 80% potency compared to IWR-1)

**Q.** And the bioavailability (pharmacokinetics in rats)?
**A.** 11%

**Q.** For `CN1CCN(S(=O)(=O)c2ccc(N3CCC=N3)cc2)c2ccccc21` [Compound 32, 1-(4-(4,5-dihydro-1H-pyrazol-1-yl)phenylsulfonyl)-4-methyl-1,2,3,4-tetrahydroquinoxaline], which “Relative potency for Wnt inhibition” value [1] is on record?
**A.** ++++ (between 60 to 80% potency compared to IWR-1)

**Q.** For `CN1CCN(S(=O)(=O)c2ccc(-n3cccn3)cc2)c2ccccc21` [Compound 33, 1-(4-(1H-pyrazol-1-yl)phenylsulfonyl)-4-methyl-1,2,3,4-tetrahydroquinoxaline], which “Relative potency for Wnt inhibition” value [1] is on record?
**A.** + (<20% potency compared to compound IWR-1)

**Q.** With `CN1CCN(S(=O)(=O)c2ccc(N3CCC(O)C3)cc2)c2ccccc21` (stereo not shown) [Compound 34, 1-(4-(4-methyl-3,4-dihydroquinoxalin-1(2H)-ylsulfonyl)phenyl)pyrrolidin-3-ol] as the compound, how does the “Relative potency for Wnt inhibition” value [1] read?
**A.** +++ (between 40 to 60% potency compared to IWR-1)

**Q.** Which “mRNA levels of canonical Wnt target genes CCND1, AXIN2, c-MYC” value [3] does the source give for `CC(=O)c1ccc(NN=C(C(N)=O)C2=NC(C)(C)Cc3ccccc32)cc1` [IQ-1] here?
**A.** enhanced mRNA expression

**Q.** Which “mRNA levels of canonical Wnt target genes CCND1, AXIN2, c-MYC” value [3] does the source give for `O=C(Nc1cccc2cccnc12)c1ccc(N2C(=O)[C@@H]3[C@H](C2=O)[C@@H]2C=C[C@H]3C2)cc1` [IWR-1, reference compound] here?
**A.** decreased mRNA expression

**Q.** And the cell cycle distribution ([4]; SW480 cells, InCell 1000 images)?
**A.** did not alter either the rate of SW480 cell proliferation or cell cycle

**Q.** What about the “cancer cell proliferation (in words)” value ([4]; SW480 colon cancer cell line) of the same compound?
**A.** did not alter either the rate of SW480 cell proliferation or cell cycle

Source: patent publication US9403800B2, “Compounds for inhibition of cancer cell proliferation” (ChemRegen, Inc., priority 2012, dated 2016)
